Reference: patent publication US20260193170A1 (University of Copenhagen, priority 2022, published 2026)

How the values were obtained:
human Keap1 Kelch domain = biological target: T1, human Keap1 Kelch domain (Homo sapiens, UniProt Q14145); test: Fluorescence polarization (FP) competition assay, Cy5-Nrf2 peptide probe; assay type: binding; conditions: heterologous competition FP; Keap1 Kelch 14 nM, Cy5-Nrf2 probe 3 nM, 4% DMSO; mean ± SEM
T1 construct: human Keap1 Kelch domain (residue 321-609, UniProt Q14145); made in house; host or cells: Escherichia coli BL21 (DE3) pLysS, pRSET A vector
T1 sequence (Q14145 321-609): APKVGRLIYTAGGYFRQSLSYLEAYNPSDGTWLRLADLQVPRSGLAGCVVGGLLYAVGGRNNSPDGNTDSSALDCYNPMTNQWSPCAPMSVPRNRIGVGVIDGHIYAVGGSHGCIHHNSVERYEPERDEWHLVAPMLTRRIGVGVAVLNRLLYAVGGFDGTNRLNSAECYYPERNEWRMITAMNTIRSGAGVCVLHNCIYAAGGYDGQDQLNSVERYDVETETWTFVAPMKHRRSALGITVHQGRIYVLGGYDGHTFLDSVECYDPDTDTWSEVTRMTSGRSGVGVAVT
How it was run: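 Ki values came from FP competition of 12 compound concentrations (2-fold, duplicate) against 14 nM Keap1 Kelch and 3 nM Cy5-Nrf2 probe. Buffer was HEPES pH 7.4 with 4% DMSO; readings were taken at 635/670 nm after 10-15 min at room temperature. IC50 was converted to Ki using probe Kd and concentrations.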

human Keap1 Kelch = biological target: T2, human Keap1 Kelch (Homo sapiens, UniProt Q14145); test: Surface plasmon resonance (SPR), immobilized Keap1 Kelch domain; assay type: binding; conditions: 25 °C, Rmax constrained to 15 RU (theoretical max)
T2 construct: human Keap1 Kelch domain (residue 321-609, UniProt Q14145); made in house; host or cells: Escherichia coli BL21 (DE3) pLysS, pRSET A vector
T2 sequence (Q14145 321-609): as above
Excerpt: 768 fragments from the commercial available (Enamine) DSI-poised library were screened against the human Keap1 Kelch domain using X-ray crystallography. After data collection and processing (example 3), several crystal structures with high-resolution (1.0-2.1 Å) were identified showing fragments bound to the Keap1 binding pocket. […] To confirm XCF #0252 as a hit and determine its affinity to human Keap1 Kelch, this fragment was resynthesized (Scheme 1) and tested by surface plasmon resonance (SPR). In SPR, a dose-dependent activity was observed and an affinity of Kd=0.6 mM was measured (FIG. 2B).
SPR measurements were performed at 25° C. using a Pioneer FE FE instrument (Sartorius). The Keap1 Kelch domain was covalently immobilized on the biosensor chip surface by amine coupling to a level of 2150 RU, using a 10 mM NaOAc pH 5 immobilization buffer. The 1×HBSTET buffer supplemented with 4% DMSO was used as running buffer for the experiments. Microcalibration was performed for all SPR experiments to adjust for DMSO bulk effects (low limit of 3% and a high limit of 4%). The compound was injected in a concentration series of twofold serial dilutions ([…]-1000 μM) using standard injections at a 30 μL/min flow rate. The data were analyzed using Qdat Data Analysis Tool version 2.6.3.0 (Sartorius). […]

Ki (human Keap1 Kelch domain) [µM] | Kd (human Keap1 Kelch) [nM] | SMILES
0.397 ± 0.041 |  | O=C(O)CC(c1ccc2c(c1)OCO2)c1ccc2ccc(OCC(=O)N[C@H]3CC[C@H](C(F)(F)F)CC3)cc2c1 (stereo partly drawn) [6i, 3-(benzo[d][1,3]dioxol-5-yl)-3-(7-(2-oxo-2-((trans-4-(trifluoromethyl)cyclohexyl)amino)ethoxy)naphthalen-2-yl)propanoic acid]
0.045 ± 0.001 |  | O=C(O)CC(c1ccc2c(c1)OCO2)c1ccc2ccc(OCC(=O)N[C@H]3CC[C@@H](C(F)(F)F)CC3)cc2c1 (stereo partly drawn) [6j, 3-(benzo[d][1,3]dioxol-5-yl)-3-(7-(2-oxo-2-((cis-4-(trifluoromethyl)cyclohexyl)amino)ethoxy)naphthalen-2-yl)propanoic acid]
0.063 ± 0.003 |  | CCCC1CCCCN1C(=O)COc1ccc2ccc(C(CC(=O)O)c3ccc4c(c3)OCO4)cc2c1 (stereo not drawn) [6k, 3-(benzo[d][1,3]dioxol-5-yl)-3-(7-(2-oxo-2-(2-propylpiperidin-1-yl)ethoxy)naphthalen-2-yl)propanoic acid]
1.88 |  | O=C(O)CC(c1ccc2c(c1)OCO2)c1ccc2ccc(OCC(=O)Nc3ccccc3)cc2c1 (stereo not drawn) [6l, 3-(benzo[d][1,3]dioxol-5-yl)-3-(7-(2-oxo-2-(phenylamino)ethoxy)naphthalen-2-yl)propanoic acid]
0.153 ± 0.012 |  | CC(Oc1ccc2ccc(C(CC(=O)O)c3ccc4c(c3)OCO4)cc2c1)C(=O)NC1CCCCCC1 (stereo not drawn) [7a, 3-(Benzo[d][1,3]dioxol-5-yl)-3-(7-((1-(cycloheptylamino)-1-oxopropan-2-yl)oxy)naphthalen-2-yl)propanoic acid]
0.129 ± 0.009 |  | CN(C(=O)COc1ccc2ccc(C(CC(=O)O)c3ccc4c(c3)OCO4)cc2c1)C1CCCCCC1 (stereo not drawn) [7b, 3-(benzo[d][1,3]dioxol-5-yl)-3-(7-(2-(cycloheptyl(methyl)amino)-2-oxoethoxy)naphthalen-2-yl)propanoic acid]
0.015 ± 0.001 |  | CC(C(=O)O)C(c1ccc2c(c1)OCO2)c1ccc2ccc(OCC(=O)NC3CCCCCC3)cc2c1 (stereo not drawn) [7c, 3-(benzo[d][1,3]dioxol-5-yl)-3-(7-(2-(cycloheptylamino)-2-oxoethoxy)naphthalen-2-yl)-2-methylpropanoic acid]
0.003 ± 0.001 |  | CC(C)(C(=O)O)C(c1ccc2c(c1)OCO2)c1ccc2ccc(OCC(=O)NC3CCCCCC3)cc2c1 (stereo not drawn) [7d, 3-(benzo[d][1,3]dioxol-5-yl)-3-(7-(2-(cycloheptylamino)-2-oxoethoxy)naphthalen-2-yl)-2,2-dimethylpropanoic acid]
0.522 ± 0.067 |  | O=C(O)CC(c1ccc2c(c1)OCO2)c1ccc2ncc(OCC(=O)NC3CCCCCC3)cc2c1 (stereo not drawn) [9a, 3-(benzo[d][1,3]dioxol-5-yl)-3-(3-(2-(cycloheptylamino)-2-oxoethoxy)quinolin-6-yl)propanoic acid]
0.083 ± 0.037 |  | O=C(O)CC(c1ccc2c(c1)OCO2)c1ccc2ccc(OCC(=O)NC3CCCCCC3)nc2c1 (stereo not drawn) [9b, 3-(benzo[d][1,3]dioxol-5-yl)-3-(2-(2-(cycloheptylamino)-2-oxoethoxy)quinolin-7-yl)propanoic acid]
0.064 |  | O=C(O)CC(c1ccc2c(c1)OCO2)c1cnc2ccc(OCC(=O)NC3CCCCCC3)cc2c1 (stereo not drawn) [9c, 3-(benzo[d][1,3]dioxol-5-yl)-3-(6-(2-(cycloheptylamino)-2-oxoethoxy)quinolin-3-yl)propanoic acid]
 | 600000 | O=C(COc1ccccc1)NC1CCCCC1 [XCF #0252, N-Cyclohexyl-2-phenoxyacetamide]
